Test results: article PMC12040169 (PLOS Biology, 2025)

Assay: in vitro
Settings: human, hela cells, % viability

Compound	viability at 28.5 h, 10 µM	viability at 28.5 h, 10 µM (bulk resorufin, single well)
COc1cccc(N2C(=O)N[C@@H]3CCN(S(=O)(=O)c4ccccc4)[C@@H]3C2=O)c1 [CBK289283]	111%	–
CSc1ncc(CNC(=O)C2CCOc3ccccc3C2)n1C (centres unmarked) [CBK307611]	82.5%	–
COC(=O)c1cnn(-c2cc(Oc3ccccc3C)ncn2)c1N [CBK098668]	102%	–
CC(=O)Nc1cccc(-c2nccnc2NS(=O)(=O)c2cccs2)c1 [CBK050760]	92.7%	–
O=C(Nc1cccc(N2CCNCC2)c1)c1cnccn1 [CBK029470T]	90.3%	–
CC(C)N(Cc1cnn(C)c1)C(=O)c1cc(C2CC2)nc2ccccc12 [CBK305325]	103%	–
Cc1cccc(-c2nnc(SCC3CC3)n2CC2CCCCC2)c1 [CBK085423]	87.7%	–
O=[N+]([O-])c1ccc(Sc2ccccc2C2=NCCCN2)nc1 [CBK006747C]	101%	–
Cc1cc2nc(SCCO)[nH]c2cc1C [CBK027546]	94.1%	–
CC(C)c1ccc(C(C)NC(=O)c2ccc(=O)n(CC(=O)N3CCCCC3)c2)cc1 (centres unmarked) [CBK286084]	88.7%	–
CCCC(=O)Nc1nnc(-c2ccc(Cl)cc2)o1 [CBK287594]	91.8%	–
COC(=O)NCCc1c[nH]c2ccc(OC)cc12 [CBK084597]	98%	–
O=C1CCC(=O)N1CCOc1nccnc1N1CCN(CCCn2c(=O)[nH]c3ccccc32)CC1 [CBK084300]	110%	–
CC1CCCCN1CC(C)(C)NC(=O)c1cc(C2CC2)on1 (centres unmarked) [CBK281676]	100%	–
CCCSc1ncc(Cl)c(C(=O)Nc2ccc(C(=O)OC)cc2)n1 [CBK268824]	102%	–
CS(=O)(=O)NC1CCCN(c2nc(-c3ccsc3)nc3ccccc23)C1 (centres unmarked) [CBK305623]	99.1%	–
Nc1ncc(Br)nc1N[C@@H](CO)c1ccccc1 [CBK074321]	102%	–
C/C(=N/Nc1nc[nH]n1)c1ccc(Cl)c(Cl)c1 [CBK028722]	80%	–
CN1N=C(c2ccc(N3CCOCC3)c(F)c2)CC1c1cnn(C)c1 (centres unmarked) [CBK305726]	87.6%	–
O=C(O)COc1ccc(S(=O)(=O)N2CCCc3ccccc32)cc1 [CBK269935]	110%	–
O=C(c1ccc(F)cc1)N1CCN(c2ccccn2)CC1 [CBK287795]	104%	–
CCCNC(=O)c1ccc(NC(=O)NC(CC)c2ccnn2C)c(C)c1 (centres unmarked) [CBK307608]	104%	–
Cc1nn2c(O)c(CCO)c(C(=O)O)nc2c1-c1ccc(Cl)cc1 [CBK286699]	108%	–

Compound	viability at 28.5 h, 10 µM	viability at 28.5 h, 10 µM (bulk resorufin, single well)
O=C(Cc1ccccc1)NC(Cc1ccc(Cl)cc1)C(=O)O (centres unmarked) [CBK286976]	92.7%	–
Cc1ccc(SCC(=O)NCc2nc(-c3ccccc3)no2)cc1 [CBK269474]	102%	–
COc1ccc(OCCCOc2ccccc2C(C)C)cc1 [CBK026366]	90.8%	–
Cc1cc(C)cc(/N=C2\NC(=O)C(CC(=O)O)S2)c1 (centres unmarked) [CBK286878]	91.4%	–
COc1ccc(-c2cn[nH]c2-c2ccc(OCCN3CCOCC3)cc2O)cc1 [CBK288112]	97%	–
Cc1cc(COC(=O)N2CCc3ccccc32)cc(C)n1 [CBK200134]	81.4%	–
COc1ccc2c(c1)C1(CC(=O)N(CCc3scnc3C)C1=O)C(=O)N2C (centres unmarked) [CBK075213]	91.6%	–
O=C(O)c1ccc(N2C(=O)CC(S/C(=N\c3ccccc3)Nc3ccccc3)C2=O)cc1 (centres unmarked) [CBK262191]	107%	–
CC1CC(=O)C2C=C(c3ccc(Br)cc3)NN=C2C1 (centres unmarked) [CBK021352]	91.8%	–
CN(C)c1cccc2c(S(=O)(=O)n3ccn(-c4cccc(C(F)(F)F)c4)c3=O)cccc12 [CBK106578]	109%	–
COc1ccc(-c2cn(-c3ccc(OC)c(OC)c3)nn2)cc1 [CBK113001]	121%	–
O=C(Nc1cccc(C(F)(F)F)c1)c1nc[nH]n1 [CBK027341]	89.4%	–
C[C@]12CN(Cc3ccccc3)C[C@H]1CNc1ccccc1C(=O)N2 [CBK282932]	94.1%	–
CS(=O)(=O)Nc1nccnc1N1CCN(C(=O)c2ccno2)CC1 [CBK048861]	107%	–
COc1ccc(C(=O)N2CCC3(CCCN(C(=O)c4ccco4)C3)C2)cc1OC (centres unmarked) [CBK131647]	98.2%	–
Cn1c(=O)n(C)c2cc(CNC(=O)CC3COCCN3)ccc21 (centres unmarked) [CBK307252]	103%	–
Cc1ccc(-c2nnc(CN3C(=O)C4(CC(=O)N(Cc5ccccc5)C4=O)c4ccccc43)o2)cc1 (centres unmarked) [CBK075749]	103%	–
Cc1[nH]c2ccccc2c1C(=O)CSc1nc2scc(-c3ccco3)c2c(=O)n1-c1ccccc1 [CBK267933]	93.3%	–
Cc1oc(NC(=O)CN2CCN(c3ccccc3)CC2)c(C#N)c1C [CBK306044]	81.7%	–
COc1ccccc1N1CCN(C(=O)C2CC2C)CC1 (centres unmarked) [CBK091496]	108%	–
COc1ccccc1CN(C)C(=O)Nc1ccc(S(N)(=O)=O)cc1 [CBK306026]	90.4%	–
CCn1c(SCC(=O)N2CCCC2)nc2cc(C)[nH]c2c1=O [CBK288027]	99.9%	–
O=C(Cn1c(NCCO)nc2ccccc21)c1ccco1 [CBK264127B]	96.3%	–

Compound	viability at 28.5 h, 10 µM	viability at 28.5 h, 10 µM (bulk resorufin, single well)
Nc1nc(OCCOc2ccccc2)cnc1-c1ccc2c(c1)OCO2 [CBK145097]	83.4%	–
O=C(CCn1c2ccccc2c2ccccc21)N1CCn2cnnc2C1 [CBK283645]	90.4%	–
O=C(O)COc1ccc2c(=O)c(Oc3ccccc3Br)c(C(F)(F)F)oc2c1 [CBK263747]	101%	–
O=C(N[C@H]1C2CCCCC2[C@@H]1c1ccccc1)c1cncnc1 (some centres unmarked) [CBK282949]	94.3%	–
CN(Cc1cc(Br)cs1)C(=O)CCc1c[nH]c2ccccc12 [CBK298268]	108%	–
Cc1ccc(C2CC(=O)C(=CNCCN3CCN(C(=S)Nc4ccccc4)CC3)C(=O)C2)cc1 (centres unmarked) [CBK263665]	96.3%	–
Cc1cc(CN2CCN(S(=O)(=O)c3ccc(-c4ccccc4)cc3)CC2)cc(C)c1O [CBK062747]	115%	–
O=C(NCc1cccnc1)c1ccc(N2CCN(C(=O)c3ccccc3C(F)(F)F)CC2)nn1 [CBK153215]	72.3%	–
COC(=O)CCn1c(-c2cccnc2C)cc2cccnc21 [CBK282593]	105%	–
O=C(Nc1ccc(I)cc1C(=O)N1CCCCC1CCO)c1cccc2ccccc12 (centres unmarked) [CBK266212]	113%	–
CN(C)CCn1c(=O)oc2ccc(NC(=O)C3CCCO3)cc21 (centres unmarked) [CBK304913]	93.9%	–
Clc1ccccc1CN(CCCn1ccnc1)Cc1c[nH]cn1 [CBK282988]	100%	–
COc1ccc(C(NC(=O)[C@H]2CCCN2C(=O)c2c(-c3ccccc3)noc2C)c2ccccc2C)cn1 (some centres unmarked) [CBK075055]	98.4%	–
c1csc(CN2CCC(c3cc4nccnc4[nH]3)CC2)c1 [CBK281520]	88.9%	–
CN1CCN(C(=O)CNS(=O)(=O)c2ccccc2)CC1 [CBK265767]	92.6%	–
COc1ccc(C[C@@]23CCC(=O)C[C@@H]2N(C)CC3)cc1 [CBK009720]	102%	–
CCN(CC)C(=O)C1CCCN(C(=O)NCCc2c[nH]c3ccccc23)C1 (centres unmarked) [CBK156140]	99.8%	–
Cn1c2ccccc2n2c(SCc3nc4ccc([N+](=O)[O-])cc4[nH]3)nnc12 [CBK266853]	88.6%	–
COc1ccccc1Cn1nc2nnc(-c3ccccc3)c(-c3ccccc3)n2c1=O [CBK286185]	88.6%	–
CN1CCCC(OC(=O)C2CCCCC2)C1 (centres unmarked) [CBK090234]	104%	–
COc1ccc(N2C(=O)/C(=C/c3cc(C)n(-c4cccc(C(=O)O)c4C)c3C)C(=O)NC2=S)cc1 [CBK264315]	–	96.6%
Cc1nc2sccn2c(=O)c1NC(=O)c1ccccn1 [CBK287665]	87.2%	–
COc1ccc2nc(C(=O)O)sc2c1 [CBK026523N]	88.4%	–

Compound	viability at 28.5 h, 10 µM	viability at 28.5 h, 10 µM (bulk resorufin, single well)
Cn1cnc2cc(NC(=O)NCCN3CCCC(CO)C3)ccc21 (centres unmarked) [CBK307582]	107%	–
CN(CC1CC1)C(=O)Cn1cnc2c(F)cc(Br)cc2c1=O [CBK305227]	87.2%	–
CCc1nc2ccc(NC(=O)c3csc(C(C)=O)c3)cc2[nH]1 [CBK282538]	114%	–
CCOC(=O)c1cccc(-c2ccc(F)cc2F)n1 [CBK149245]	101%	–
CCC(CO)Nc1nccnc1-c1cccc(C(=O)N2CCN(C)CC2)c1 (centres unmarked) [CBK037087]	92.6%	–
NC(=O)CN1CCC(Oc2cncc(OCC3COc4ccccc4O3)n2)C1 (centres unmarked) [CBK084372]	98.2%	–
COc1cc(CN2CCN(Cc3ccccc3F)CC2)cc(OC)c1O [CBK264219]	95.9%	–
Cc1ccc2cc(COC(=O)c3ccc(N4CCOCC4)nc3)c(Cl)nc2c1 [CBK295336]	90.5%	–
CC(NS(=O)(=O)c1ccccc1)C(=O)Nc1ccc(S(N)(=O)=O)cc1 (centres unmarked) [CBK266929]	110%	–
Cc1nn(Cc2ccccc2)c(Cl)c1C=Cc1cc(C(=O)O)c2ccccc2n1 [CBK296942]	95.4%	–
Cc1cc(NC(=O)C2CCN(CC3CCCO3)CC2)no1 (centres unmarked) [CBK305544]	110%	–
CCc1ccc(CN2CCC(Oc3ccccc3F)(C(=O)O)CC2)nc1 [CBK307528]	93.1%	–
O=S(=O)(Nc1cccc(C(F)(F)F)c1)c1cc2c(N3CCNCC3)nccc2s1 [CBK039085C]	103%	–
O=C(NCC1CCCO1)c1ccc(-n2ccnc2)c(-n2cccc2)c1 (centres unmarked) [CBK285356]	98.2%	–
OCC1CCCN1c1cncc(-c2ccc3ccccc3c2)n1 (centres unmarked) [CBK037197]	104%	–
COc1ccc(C)cc1S(=O)(=O)n1cc2c3c(cccc31)CN(C(=O)CN(C)C)C2 [CBK155549T]	93.3%	–
CCN(CC(O)COc1cc(C)c(Cl)c(C)c1)S(=O)(=O)O (centres unmarked) [CBK026767N]	106%	–
OC(COc1ccc2c(c1)OCO2)CN1CCN(C(c2ccccc2)c2ccccc2)CC1 (centres unmarked) [CBK074854C]	87.5%	–
Cc1ccc(C(=O)N2C[C@H]3NC(=O)c4ccccc4C(=O)[C@@]3(C)C2)cc1 [CBK285315]	87.6%	–
Cc1[nH]c2cc(C(=O)O)ccc2c1CC(=O)O [CBK269955]	98%	–
